# According to ChEMBL document CHEMBL1122789, “Synthesis and biological activity of structural analogues of the anticancer benzophenanthridine alkaloid nitidine chloride” (1984):
# Active and inactive are the calls of the source. The calls are words filed in the database; no cut-off is given here.
# How the values were obtained:
# P388 [1] = test: Evaluated for percentage test/control (%T/C) in survival tumor system against P388 lymphocytic leukemia; type: functional, Mus musculus
# L1210 = test: Evaluated for percentage test/control (%T/C) in survival tumor system against L1210 lymphoid leukemia; type: functional, Mus musculus
# B16 = test: Evaluated for percentage test/control (%T/C) in survival tumor system against B16 melanocarcinoma at dose 20 mg/Kg; type: functional, Mus musculus
# KB = test: Evaluated in vitro for cytotoxicity against KB cell culture system; type: functional; details: Homo sapiens, read-out: ED50 (the source's name)
# P388 [2] = test: Evaluated for anticancer activity against P388 lymphocytic leukemia system at a dose of 200 mg/Kg; Inactive; type: functional; details: Mus musculus
SMILES,T/C (P388 [1]) [%],T/C (L1210) [%],T/C (B16) [%],EC50 (KB) [ng/mL],Anticancer activity (P388 [2])
COc1cc2c[n+](C)c3c4cc5c(cc4ccc3c2cc1OC)OCO5.[Cl-] [NITIDINE CHLORIDE],209,136,141,,
COc1cc2c(ccc3c4cc(OC)c(OC)cc4c[n+](C)c23)cc1O.[Cl-] [FAGARONINE],265,,,,
COc1cc2cc(-c3ccc4c(c3)OCO4)[n+](C)cc2cc1OC.[Cl-],,,,5,inactive
